According to patent US20110152214A1, “SILK POLYMER-BASED ADENOSINE RELEASE: THERAPEUTIC POTENTIAL FOR EPILEPSY” (TRUSTEES OF TUFTS COLLEGE, priority 2008, published 2011):
Entries after “also recorded” stand apart in the source; their conditions may differ.

What was measured:
rat kindling model [1] = type: in vivo
Experimental: Anesthesia was induced with 3% isoflurane, 67% N2O, 30% O2 and maintained with 1.5% isoflurane, 68.5% N2O, 30% O2, while rats (N=22) were placed in a Kopf stereotactic frame. […]
Four days after surgery, the animals were stimulated unilaterally six times every second or third day with a Grass S-88 stimulator (1-ms square-wave pulses of 5V at 50-Hz frequency for 10 sec; 30 min-interval between stimulations). Behavioral seizures were scored according to the scale of Racine (3(2) Neurosurg. 234-52 (1978)). […] The electroencephalogram (EEG) was recorded for periods of 1 min before and 5 min after application of each stimulating pulse using a Nervus EEG monitoring system. […]
Seizure scores were determined after each stimulation according to the scale of Racine (1978). […]

fully kindled rats [2] = experiment: Experiment 1: suppression of kindled seizures by polymer-based adenosine release; type: in vivo, rat
Excerpt: Experiment 1: Four days after surgery, the animals were stimulated unilaterally six times every second or third day with a Grass S-88 stimulator (1-ms square-wave pulses of 5 V at 50-Hz frequency for 10 s, 30-min interval between stimulations; these stimulations corresponded to about 350 μA, whereas the afterdischarge thresholds before kindling were in the range of 115 μA). Behavioral seizures were scored according to the scale of Racine (Racine, 1978). The electroencephalogram (EEG) was recorded for periods of 1 min before and 5 min after application of each stimulating pulse using a Nervus EEG monitoring system. Stimulations on each day were discontinued whenever a stage 5 seizure on that day was reached. Eventually, all animals reacted with a stage 5 seizure at the first (and then only) daily stimulation. After three stage 5 seizures elicited by the first stimulation on three subsequent kindling-days animals were considered to be fully kindled (i.e. reproducibility of stage 5 seizure activity after stimulation). […] Only animals that fulfilled these stringent kindling criteria were used for the subsequent experiments. Polymers were implanted into these fully kindled animals. Implant recipients received one test-stimulation each on day 4, 6, 10, 14, 18, and 21 after polymer implantation and were then subjected to histological analysis. […]

rat kindling model [3] = experiment: Experiment 2a: kindling on days 4, 6, 8, 11 after implantation, then DPCPX test; type: in vivo; conditions: 1 mg/kg, i.p., 30 min prior to stimulation, day twelve
Excerpt: Experiment 2: Polymer implantation (see below) was combined with electrode implantation (see above) in the same surgery. Experiment 2a: Kindling was initiated four days after polymer implantation with the animals receiving 6 kindling stimulations (1-ms square-wave pulses of 5 V at 50-Hz frequency for 10 sec, 30-min interval between stimulations) each on day 4, 6, 8, and 11 after implantation; this amounted to a total of 24 stimulations. […] Twenty-four (24) hr after this drug test all animals were stimulated again once before being sacrificed for histological analysis. Experiment 2b (FIG. 3): Kindling was initiated four days after polymer implantation with the animals receiving six kindling stimulations each on days 4, 5, 6, 7, and 8, after implantation; this amounted to a total of 30 stimulations. In these incompletely kindled adenosine-implant recipients further stimulations were suspended until adenosine release from the polymers had expired (from day eighteen onwards). Kindling stimulations were resumed on days 18, 19, 20, 21, and 22 after implantation (6 stimulations/day; total of 30 additional stimulations). Afterwards the animals were sacrificed for histological analysis. […]

fully kindled rats [4] = conditions: Boison et al. 2002; Güttinger et al. 2005; Huber et al. 2001; cited from earlier work
rat kindling model [5] = conditions: Silver et al., 1991; cited from earlier work

Nc1ncnc2c1ncn2[C@@H]1O[C@H](CO)[C@@H](O)[C@H]1O [adenosine]
doses sufficient to suppress kindling (rat kindling model [1]; focal infrahippocampal release, from Table 3): around 400 ng adenosine/day | tolerability of high doses, gross behavioral changes (rat kindling model [1]; rat, in vivo): well tolerated

OC[C@H]1O[C@@H](n2cnc3c(NC4CCCC4)nc(Cl)nc32)[C@H](O)[C@@H]1O [CCPA, 2-chloro-N(6)-cyclopentyladenosine]
seizure response to test stimulation (fully kindled rats [2]; 3 mg/kg i.p., 30 min prior to test stimulation, before polymer implantation): complete seizure suppression

CCCn1c(=O)c2[nH]c(C3CCCC3)nc2n(CCC)c1=O [DPCPX, 8-cyclopentyl-1,3-dipropylxanthine]
seizure stage elicited in an ADO-polymer treated rat after DPCPX (fully kindled rats [2]; 1 mg/kg, i.p., 30 min after injection, day three): 5 | effect of DPCPX on seizure score in adenosine-releasing implant recipients (rat kindling model [3]): failed to elicit control group-like seizures; also recorded: did not increase the seizure score; also recorded: failed to increase seizure scores | seizures elicited by DPCPX paired with kindling stimulations (fully kindled rats [4]): readily elicits stage 5 seizures

NC(=O)N1c2ccccc2C=Cc2ccccc21 [carbamazepine]
effect on kindling development / antiepileptogenesis (rat kindling model [5]): did not affect kindling development during the drug-phase
